According to PMC5877436, “A first-in-human phase I study to determine the maximum tolerated dose of the oral Src/ABL inhibitor AZD0424” (British Journal of Cancer, 2018):
Entries after “also recorded” stand apart in the source; their conditions may differ. Like-named read-outs stand apart in the source and are kept apart here.

How the values were obtained:
[1] = format: in vivo
Src [2] = test: Urinary NTX and serum CTX levels as markers of Src inhibition; format: in vivo, human
Procedure: Src inhibition is known to reduce bone resorption, resulting in a decrease in urinary N-terminal cross-linking telopeptides of type I collagen (NTX) and serum C-terminal cross-linking telopeptides of type I collagen (CTX) ([Hannon et al, 2012]). Measurements of urinary NTX and serum CTX levels were performed before the first administration of AZD0424 and then weekly, at the same time of day, for up to 6 weeks following first administration as markers of Src inhibition. Samples were analysed at the Mellanby Centre for Bone Research in Sheffield using the Cobas e411 automated immunoassay (Roche Diagnostics, Mannheim, Germany) for serum CTX (ng ml^−1), and the Ortho Clinical Diagnostics (High Wycombe, UK) automated immunoassay for urine NTX. Urinary NTX measurements were reported as a ratio to urinary creatinine (nmol bone collagen equivalent (BCE)/mmol creatinine). Tumour biopsies for measurement of tumour biomarkers (p-Src, Ki67, p-PAX, and p-FAK) by immunohistochemical staining were optional.

advanced solid tumours = test: Disease response by RECIST 1.1; format: in vivo, human
Procedure: All patients receiving at least one dose of AZD0424 were evaluable for safety and efficacy analyses. Safety and tolerability of AZD0424 were assessed according to NCI CTCAE version 4.02. Patients who were withdrawn from treatment, or received less than 75% of the planned doses of AZD0424 during the first cycle, for reasons other than toxicity were not evaluable for dose review decisions and could be replaced. Disease response was assessed according to RECIST 1.1. For stable disease (SD), follow-up measurements had to meet the SD criteria at least once at least 6 weeks after the first dose of AZD0424.

Src [3] = test system: Src; set-up: method as in Cancer Research UK Centre for Drug Development, 2015; details: ref Cancer Research UK Centre for Drug Development, 2015; cited from earlier work
[4] = human, in vivo
Procedure: (§1) Treatment cycles consisted of 28 days of continuous AZD0424 administration, and treatment was to be continued until disease progression, patient withdrawal or unacceptable toxicity.
(§2) All patients receiving at least one dose of AZD0424 were evaluable for safety and efficacy analyses. Safety and tolerability of AZD0424 were assessed according to NCI CTCAE version 4.02.

ABL1 = test system: ABL1; set-up: method as in Cancer Research UK Centre for Drug Development, 2015; details: ref Cancer Research UK Centre for Drug Development, 2015; cited from earlier work
Yes = test system: Yes; set-up: method as in Cancer Research UK Centre for Drug Development, 2015; details: ref Cancer Research UK Centre for Drug Development, 2015; cited from earlier work
Lck = test system: Lck; set-up: method as in Cancer Research UK Centre for Drug Development, 2015; details: ref Cancer Research UK Centre for Drug Development, 2015; cited from earlier work
[5] = test system: C-terminal Src tyrosine kinase (CSK); details: cited from earlier work
[6] = test system: mouse fibroblasts engineered to over-express activated Src kinase (c-SRC 3T3); details: in vitro, pre-clinical; cited from earlier work
[7] = test system: human umbilical vein endothelial cell cultures; details: in vitro, growth factor stimulated, pre-clinical; cited from earlier work
[8] = test system: non-engineered human tumour cell lines; details: in vitro, diverse panel, pre-clinical; cited from earlier work
human tumour cells = details: in vitro, pre-clinical; cited from earlier work
paxillin = details: in vitro, pre-clinical; cited from earlier work
[9] = test system: human Calu-6 lung tumour xenografts; details: rats, pre-clinical; cited from earlier work
[10] = test system: c-Src 3T mouse xenografts; details: immunocompromised rats, subcutaneous, pre-clinical; cited from earlier work
[11] = rat, pre-clinical; cited from earlier work
[12] = dog, pre-clinical; cited from earlier work
clinical = details: human, plasma, oral
Procedure: (§3) Patients were fasted for 3 h prior to administration of AZD0424. Blood samples for analysis of plasma levels of AZD0424 were taken at the following time points: Cycle 1: Pre-dose and at 0.5, 1, 2, 4, 6 and 10 h post-dose on Day 1, then at 24 and 48 h and pre-dose on Days 8, 15 and 22; Cycle 2 (Day 29): Pre-dose and at 0.5, 1, 2, 4, 6, 10, 24 and 48 h. For patients receiving twice-daily AZD0424, the timing of samples was in relation to the morning dose of the drug. Plasma was isolated from centrifuged blood samples and stored at −80 °C prior to quantification of AZD0424 by a validated high performance liquid chromatography method with mass spectrometric detection. Plasma concentration/time data were analysed using non-compartmental methods.

VEGFR-2 = details: ref Cancer Research UK Centre for Drug Development, 2015; cited from earlier work
[13] = Plasma pharmacokinetics in patients;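 also: patient plasma drug levels measured by validated HPLC with mass spectrometric detection after a 3 h fast, PK parameters from non-compartmental analysis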
Procedure: as §3

[14] = Phase Ia dose escalation: safety and tolerability (NCI CTCAE v4.02, DLT, MTD)
Procedure: as §1, §2

breast cancer cell = test system: breast cancer cell; set-up: method as in Srinivasan and Plattner, 2006; details: ref Srinivasan and Plattner, 2006; cited from earlier work
[15] = set-up: method as in Reddy et al, 2015; details: colorectal cancer patients; ref Reddy et al, 2015; cited from earlier work
[16] = set-up: method as in Baselga et al, 2010; details: ref Baselga et al, 2010; cited from earlier work

## CC(=O)N1CCN(CCOc2cc(OC(C)C)c3c(Nc4c(Cl)cnc5c4OCO5)ncnc3c2)CC1 [AZD0424, 7-[2-(4-Acetylpiperazin-1-yl)ethoxy]-N-(6-chloro[1,3]dioxolo[4,5-b]pyridin-7-yl)-5-isopropoxyquinazolin-4-amine]
[1]
  one tenth of the maximum tolerated dose in rat scaled to man: 17 mg
Src [2]; 5 mg, single patient
  change in CTX or NTX level: No significant post-administration changes
Src [2]; CTX and NTX
  dose giving clear evidence of Src target inhibition / inhibition of bone turnover: ≥ 20 mg per day
Src [2]; all cohorts other than 5 mg, by week 2, maintained to 7 weeks
  change in CTX and NTX: a fall relative to baseline values in both CTX and NTX
Src [2]; doses of more than 10 mg per day, saracatinib data ref Hannon et al, 2012
  percentage reductions in CTX and NTX compared with 50 mg per day of saracatinib: Greater percentage reductions
Advanced solid tumours; 22/41
  rate of PD: 53.7%
Advanced solid tumours; all cohorts
  patients with SD lasting >12 weeks: five
  patients with best response of PD: Twenty-two
Advanced solid tumours; all cohorts, 7 of 41 patients
  patients with best response of stable disease lasting at least 6 weeks: 17.1%
Advanced solid tumours; all cohorts, N=41
  complete response or partial response: No responses were observed; also recorded: No patients
Src [3]
  IC50: ~4 nM
[4]
  Alopecia, treatment-related AE, All grades patients: 17 (41) n (%)
  Alopecia, treatment-related AE, Grade 3–5 patients: 0 n (%)
  Anaemia, treatment-related AE, All grades patients: 7 (17) n (%)
  Anaemia, treatment-related AE, Grade 3–5 patients: 3 (7) n (%)
  Anorexia, treatment-related AE, All grades patients: 19 (46) n (%)
  Anorexia, treatment-related AE, Grade 3–5 patients: 1 (2) n (%)
  Aspartate aminotransferase increased, treatment-related AE, All grades patients: 5 (12) n (%)
  Aspartate aminotransferase increased, treatment-related AE, Grade 3–5 patients: 0 n (%)
  Cmin at which Grade 2 or 3 hypophosphataemia appeared more frequent: ≥ 200 nM
  Constipation, treatment-related AE, All grades patients: 6 (15) n (%)
  Constipation, treatment-related AE, Grade 3–5 patients: 1 (2) n (%)
  Diarrhoea, treatment-related AE, All grades patients: 12 (29) n (%)
  Diarrhoea, treatment-related AE, Grade 3–5 patients: 2 (5) n (%)
  Dysgeusia, treatment-related AE, All grades patients: 14 (34) n (%)
  Dysgeusia, treatment-related AE, Grade 3–5 patients: 0 n (%)
  Fatigue, treatment-related AE, All grades patients: 21(51) n (%)
  Fatigue, treatment-related AE, Grade 3–5 patients: 5 (12) n (%)
  Headache, treatment-related AE, All grades patients: 5 (12) n (%)
  Headache, treatment-related AE, Grade 3–5 patients: 0 n (%)
  Hypophosphataemia, treatment-related AE, All grades patients: 16 (39) n (%)
  Hypophosphataemia, treatment-related AE, Grade 3–5 patients: 8 (20) n (%)
  Lymphocyte count decreased, treatment-related AE, All grades patients: 10 (24) n (%)
  Lymphocyte count decreased, treatment-related AE, Grade 3–5 patients: 5 (12) n (%)
  Maculopapular rash, treatment-related AE, All grades patients: 9 (22) n (%)
  Maculopapular rash, treatment-related AE, Grade 3–5 patients: 2 (5) n (%)
  Nausea, treatment-related AE, All grades patients: 27 (66) n (%)
  Nausea, treatment-related AE, Grade 3–5 patients: 2 (5) n (%)
  Pruritis, treatment-related AE, All grades patients: 7 (17) n (%)
  Pruritis, treatment-related AE, Grade 3–5 patients: 0 n (%)
  Vomiting, treatment-related AE, All grades patients: 13 (32) n (%)
  Vomiting, treatment-related AE, Grade 3–5 patients: 1 (2) n (%)
  dose above which treatment-related AE episodes and Grade 3-5 AEs increased markedly: above 60 mg per day
  nausea, fatigue, anorexia and alopecia, each: patients with treatment-related AE: > 40%
  patients with AE of Grade 3 hypophosphataemia related to the drug: 19.5%
  patients with at least one AE possibly, probably or highly probably related to AZD0424: 92.7%
  patients with at least one AZD0424-related event Grade 3-5 in severity: 41.5%
  patients with decline in lymphocyte count: 68.3%
  patients with dose delays and/or alterations during the study: 63.4%
  protocol-defined RP2D: 80 mg
ABL1
  IC50: ~4 nM
Yes
  activity against Yes: additional activity
Lck
  activity against Lck: additional activity
[5]; ref Cancer Research UK Centre for Drug Development, 2015
  selectivity for Src-Abl1 kinases vs CSK: > 448 fold
[6]
  inhibition of proliferation: potent inhibition of proliferation
[7]
  inhibition of proliferation: inhibited proliferation
[8]
  inhibition of proliferation: generally poor
Human tumour cells
  inhibition of migration: potent inhibition of migration
paxillin
  inhibition of phosphorylation of paxillin: evidence of inhibition of phosphorylation
[9]
  anti-tumour growth effect: moderate anti-tumour growth effects
[10]
  inhibition of tumour growth: profound, dose-dependent inhibition of tumour growth
[11]
  dose limiting toxicity: gastrointestinal toxicity being dose limiting
  hypotension and reflex tachycardia: Hypotension and reflex tachycardia were also observed
[12]
  dose limiting toxicity: gastrointestinal toxicity being dose limiting
  hypotension and reflex tachycardia: Hypotension and reflex tachycardia were also observed
clinical
  Tmax: < 2 h
  half-life: 8.4 ± 2.8 h
clinical; 5 mg
  AUC(0-t): 0.624 µM·h
  Cmax: 68.3 nM
  half-life: 6.7 h
clinical; 10 mg
  AUC(0-t): 1.57 µM·h
  Cmax: 210 nM
  half-life: 6.3 h
clinical; 20 mg
  Cmax: 590 ± 300 nM
  half-life: 6.8 ± 2.6 h
clinical; 40 mg
  AUC(0-t): 6.81 ± 3.46 µM·h
  Cmax: 715 ± 380 nM
  half-life: 10.5 ± 0.8 h
clinical; 60 mg
  AUC(0-t): 9.88 ± 1.77 µM·h
  Cmax: 1380 ± 215 nM
  half-life: 8.2 ± 3.3 h
clinical; 80 mg
  AUC(0-t): 14.1 ± 5.12 µM·h
  Cmax: 1670 ± 602 nM
  half-life: 9.4 ± 5 h
clinical; 120 mg
  AUC(0-t): 24.9 ± 12 µM·h
  Cmax: 2650 ± 923 nM
  half-life: 7.8 ± 3.1 h
clinical; 150 mg
  AUC(0-t): 25.6 ± 4.15 µM·h
  Cmax: 4110 ± 1540 nM
  half-life: 7.8 ± 2.1 h
VEGFR-2
  selectivity for Src-Abl1 kinases vs VEGFR-2: > 933 fold
[13]; comparable doses, saracatinib data ref Baselga et al, 2010
  Cmax and AUC(0-24 h) compared with saracatinib: much higher for AZD0424 than saracatinib
[13]; o.d. dosing 5-150 mg
  dose dependence of Cmax and AUC: increased linearly with dose; also recorded: Linear, dose-dependent increases; also recorded: dose-dependent, linear increases
[13]; oral
  absorption and bioavailability: rapid absorption and high bioavailability
[14]; all cohorts
  deaths due to pneumonia considered possibly related to AZD0424: One
  patients who died within 4 weeks of the last administration: Four
[14]; o.d., continuous oral dosing, 28-day cycles
  maximum tolerated dose (MTD): 120 mg

## COc1cc(Nc2c(C#N)cnc3cc(OCCCN4CCN(C)CC4)c(OC)cc23)c(Cl)cc1Cl [bosutinib, reference compound]
[5]; ref Davis et al, 2011
  selectivity for SFKs over CSK: ~30 fold

## Cc1ccc(NC(=O)c2ccc(CN3CCN(C)CC3)cc2)cc1Nc1nccc(-c2cccnc2)n1 [imatinib]
Breast cancer cell
  inhibition of cell motility: markedly inhibits cell motility

## CN1CCN(CCOc2cc(OC3CCOCC3)c3c(Nc4c(Cl)ccc5c4OCO5)ncnc3c2)CC1 [saracatinib]
[15]
  rate of Grade 3 hypophosphataemia: 50%
[16]
  recommended phase II dose (RP2D): 175 mg
